Our source for the IC50 values is US9586951B2 (FUJIFILM Corporation, priority 2013, dated 2017).

T1 sequence (Q13315 whole entry): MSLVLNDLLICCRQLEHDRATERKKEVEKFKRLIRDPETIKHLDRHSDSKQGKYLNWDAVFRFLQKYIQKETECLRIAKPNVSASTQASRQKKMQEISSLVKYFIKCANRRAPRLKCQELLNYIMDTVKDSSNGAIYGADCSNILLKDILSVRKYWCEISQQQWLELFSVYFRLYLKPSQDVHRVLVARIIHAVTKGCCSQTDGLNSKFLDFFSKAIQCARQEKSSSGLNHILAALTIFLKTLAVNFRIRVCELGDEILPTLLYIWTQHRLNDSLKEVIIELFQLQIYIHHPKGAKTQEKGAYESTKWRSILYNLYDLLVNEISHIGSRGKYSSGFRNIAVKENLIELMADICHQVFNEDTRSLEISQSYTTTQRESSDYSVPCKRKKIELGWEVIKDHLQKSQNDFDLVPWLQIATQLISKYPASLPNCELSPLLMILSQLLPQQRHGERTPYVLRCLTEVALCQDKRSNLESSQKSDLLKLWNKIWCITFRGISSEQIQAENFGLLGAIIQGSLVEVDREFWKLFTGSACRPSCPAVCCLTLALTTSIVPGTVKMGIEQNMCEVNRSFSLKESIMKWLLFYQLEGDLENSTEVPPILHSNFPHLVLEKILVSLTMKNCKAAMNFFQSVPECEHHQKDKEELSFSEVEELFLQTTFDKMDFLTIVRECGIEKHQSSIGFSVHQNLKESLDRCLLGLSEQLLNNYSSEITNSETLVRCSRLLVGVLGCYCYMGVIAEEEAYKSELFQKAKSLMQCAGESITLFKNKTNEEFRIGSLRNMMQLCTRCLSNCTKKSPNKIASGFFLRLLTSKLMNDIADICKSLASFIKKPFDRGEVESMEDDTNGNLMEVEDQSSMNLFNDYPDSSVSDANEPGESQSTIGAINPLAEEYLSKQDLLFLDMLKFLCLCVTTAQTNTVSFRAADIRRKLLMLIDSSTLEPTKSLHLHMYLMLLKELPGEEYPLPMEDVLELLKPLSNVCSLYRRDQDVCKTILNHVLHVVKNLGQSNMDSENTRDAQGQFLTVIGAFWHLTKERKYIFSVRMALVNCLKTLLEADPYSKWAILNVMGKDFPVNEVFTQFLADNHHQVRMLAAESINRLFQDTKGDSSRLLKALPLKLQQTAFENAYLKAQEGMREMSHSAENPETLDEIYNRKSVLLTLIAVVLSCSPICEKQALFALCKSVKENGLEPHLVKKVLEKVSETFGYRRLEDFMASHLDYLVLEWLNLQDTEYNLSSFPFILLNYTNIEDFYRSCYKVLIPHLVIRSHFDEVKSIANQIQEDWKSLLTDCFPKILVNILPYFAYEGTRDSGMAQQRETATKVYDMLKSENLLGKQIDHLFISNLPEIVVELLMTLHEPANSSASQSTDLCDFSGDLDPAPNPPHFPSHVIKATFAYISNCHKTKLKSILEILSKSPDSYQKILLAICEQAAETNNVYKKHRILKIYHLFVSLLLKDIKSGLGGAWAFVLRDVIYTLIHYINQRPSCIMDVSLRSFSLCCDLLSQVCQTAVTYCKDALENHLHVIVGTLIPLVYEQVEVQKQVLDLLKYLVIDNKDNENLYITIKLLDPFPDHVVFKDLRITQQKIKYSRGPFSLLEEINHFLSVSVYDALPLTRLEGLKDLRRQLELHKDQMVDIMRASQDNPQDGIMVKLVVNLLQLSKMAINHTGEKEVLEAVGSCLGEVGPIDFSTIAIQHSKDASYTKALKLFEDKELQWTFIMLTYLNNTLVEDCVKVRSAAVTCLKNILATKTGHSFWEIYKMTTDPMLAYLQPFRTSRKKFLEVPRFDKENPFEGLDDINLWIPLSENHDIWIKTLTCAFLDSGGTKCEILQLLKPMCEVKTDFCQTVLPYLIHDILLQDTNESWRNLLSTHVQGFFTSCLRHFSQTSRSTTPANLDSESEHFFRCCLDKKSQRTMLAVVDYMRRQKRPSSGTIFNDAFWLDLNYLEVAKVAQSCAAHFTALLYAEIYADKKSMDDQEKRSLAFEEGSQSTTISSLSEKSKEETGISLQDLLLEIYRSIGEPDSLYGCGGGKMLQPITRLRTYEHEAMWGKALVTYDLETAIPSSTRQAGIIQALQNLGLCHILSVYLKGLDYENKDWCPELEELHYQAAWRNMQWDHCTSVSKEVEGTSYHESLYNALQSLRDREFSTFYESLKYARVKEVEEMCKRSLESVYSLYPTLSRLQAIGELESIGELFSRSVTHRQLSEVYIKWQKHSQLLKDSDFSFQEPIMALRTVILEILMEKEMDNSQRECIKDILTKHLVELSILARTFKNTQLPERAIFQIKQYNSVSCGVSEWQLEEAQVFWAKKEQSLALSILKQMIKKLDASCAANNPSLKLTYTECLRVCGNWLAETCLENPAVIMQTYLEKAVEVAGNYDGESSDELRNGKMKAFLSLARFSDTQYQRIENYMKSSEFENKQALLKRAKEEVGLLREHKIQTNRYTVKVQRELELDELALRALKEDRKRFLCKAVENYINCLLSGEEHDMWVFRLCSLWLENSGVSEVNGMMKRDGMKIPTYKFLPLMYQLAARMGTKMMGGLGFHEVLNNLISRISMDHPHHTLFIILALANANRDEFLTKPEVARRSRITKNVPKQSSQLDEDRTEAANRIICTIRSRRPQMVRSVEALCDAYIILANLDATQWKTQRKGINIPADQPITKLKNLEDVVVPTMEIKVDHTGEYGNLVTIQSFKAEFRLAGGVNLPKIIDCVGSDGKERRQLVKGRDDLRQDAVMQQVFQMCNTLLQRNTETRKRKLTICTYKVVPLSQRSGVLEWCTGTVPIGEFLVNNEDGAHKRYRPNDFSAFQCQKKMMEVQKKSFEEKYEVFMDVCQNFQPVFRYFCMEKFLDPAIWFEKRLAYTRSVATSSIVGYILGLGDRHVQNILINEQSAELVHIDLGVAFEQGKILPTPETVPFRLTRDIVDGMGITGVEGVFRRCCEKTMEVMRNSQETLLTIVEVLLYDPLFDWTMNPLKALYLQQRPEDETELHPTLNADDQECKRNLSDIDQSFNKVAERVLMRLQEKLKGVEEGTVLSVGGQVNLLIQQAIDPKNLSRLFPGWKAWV

This test has as its target T1, ATM (Homo sapiens, UniProt Q13315).
T1 construct: detecting phosphorylation of Chk2 in a human non-small cell lung cancer cell line NCI-H460 (ATCC company); host or cells: NCI-H460 human non-small cell lung cancer cells
Put plainly: ATM inhibition test (phosphorylation of Chk2 generated by ionizing radiation, AlphaScreen SureFire). In kind it is cell-based. The settings on record: phosphorylated Chk2 in NCI-H460 cells, ionizing radiation 8Gy, 1 hour after test compound treatment; read-out: ATM inhibitory activity. In a few lines: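 Human NCI-H460 lung cancer cells were treated with compound for 1 h, then irradiated at 8Gy and incubated 1 h at 37° C. Phospho-Chk2 was quantified by AlphaScreen SureFire; inhibition % was normalised between irradiated untreated and non-irradiated untreated wells.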
(In general: Alpha assays give light when donor and acceptor beads are brought close together.)
In the case of `O=c1cc(N2CCOCC2)cc(-c2cccc3c2Oc2ccc(NCc4cncc(-n5ccnc5)c4)cc2C3)[nH]1` [Example 2-2-56, 6-(7-(((5-(1H-Imidazol-1-yl)pyridin-3-yl)methyl)amino)-9H-xanthen-4-yl)-4-morpholino pyridin-2 (1H)-one], the IC50 fell in the range of 100 to 500 nM. The same measure for `COC1CN(CCC(Nc2ccc3c(c2)Sc2cccc(-c4cc(N5CCOCC5)cc(=O)[nH]4)c2S3)c2ccc(C)cn2)C1` (single isomer, unassigned) [Example 1-51-8, 6-(7-((3-(3-Methoxyazetidin-1-yl)-1-(5-methylpyridin-2-yl)propyl)amino)thianthren-1-yl)-4-morpholino pyridin-2 (1H)-one]: below 100 nM; for `CC(Nc1ccc2c(c1)Sc1cccc(-c3cc(N4CCOCC4)cc(=O)[nH]3)c1S2)C(=O)N1CCCC1` (centres unmarked) [Example 1-18-4]: 100 to 500 nM; for `COC[C@H](CN1CCOCC1)Nc1ccc2c(c1)Sc1cccc(-c3cc(N4CCOCC4)cc(=O)[nH]3)c1O2` [Example 10-6, (S)-6-(8-((1-methoxy-3-morpholinopropan-2-yl)amino)phenoxathiin-4-yl)-4-morpholinopyridin-2(1H)-one]: 100 to 500 nM. Then `Cc1cccc(C(CN)Nc2ccc3c(c2)Sc2cccc(-c4cc(N5CCOCC5)cc(=O)[nH]4)c2S3)n1` (centres unmarked) [Example 1-19-2, 6-(7-((2-Amino-1-(6-methylpyridin-2-yl)ethyl)amino)thianthren-1-yl)-4-morpholinopyridin-2(1H)-one], with 100 to 500 nM; and `O=c1cc(N2CCOCC2)cc(-c2cccc3c2Oc2ccc(NCc4cncc(N5CCCC5)c4)cc2C3)[nH]1` [Example 2-2-63, 4-Morpholino-6-(7-(((5-(pyrrolidin-1-yl)pyridin-3-yl)methyl)amino)-9H-xanthen-4-yl)pyridin-2(1H)-one], with 100 to 500 nM; and `O=c1cc(N2CCOCC2)cc(-c2cccc3c2Oc2ccccc2S3)[nH]1` [Example 4-12, 4-Morpholino-6-(phenoxathiin-4-yl)pyridin-2(1H)-one], with 500 to 2000 nM.

`COCCNCCC(Nc1ccc2c(c1)Sc1cccc(-c3cc(N4CCOCC4)cc(=O)[nH]3)c1S2)c1cccc(C)n1` (centres unmarked) [Example 1-20-10, 6-(7-((3-((2-Methoxyethyl)amino)-1-(6-methylpyridin-2-yl)propyl)amino)thianthren-1-yl)-4-morpholino pyridin-2 (1H)-one]: the IC50 fell in the range of 100 to 500 nM.

With `CC(CN1CC(F)(F)C1)Nc1ccc2c(c1)Sc1cccc(-c3cc(N4CCOCC4)cc(=O)[nH]3)c1S2` (centres unmarked) [Example 1-43-4, 6-(7-((1-(3,3-Difluoroazetidin-1-yl)propan-2-yl)amino)thianthren-1-yl)-4-morpholino pyridin-2(1H)-one], the IC50 fell in the range of 100 to 500 nM.

As for `COCc1ccc(CCN2CCC(Nc3ccc4c(c3)Cc3cccc(-c5cc(N6CCOCC6)cc(=O)[nH]5)c3O4)CC2)cc1` [Example 2-30-20, 6-(7-((1-(4-(Methoxymethyl)phenethyl)piperidin-4-yl)amino)-9H-xanthen-4-yl)-4-morpholino pyridin-2(1H)-one], the IC50 lay within 500 to 2000 nM. With `CCCCC(Nc1ccc2c(c1)Sc1cccc(-c3cc(N4CCOCC4)cc(=O)[nH]3)c1S2)[C@H](C)N1CCOCC1` (stereo partly drawn) [Example 1-21-2, 4-Morpholino-6-(7-(((2S)-2-morpholinoheptan-3-yl)amino)thianthren-1-yl) pyridin-2(1H)-one], the IC50 was in the range of 100 to 500 nM. `COCCNCC(Nc1ccc2c(c1)Sc1cccc(-c3cc(N4CCOCC4)cc(=O)[nH]3)c1S2)c1cccc(C)n1` (centres unmarked) [Example 1-34-2, 6-(7-((2-((2-Methoxyethyl)amino)-1-(6-methylpyridin-2-yl)ethyl)amino)thianthren-1-yl)-4-morpholino pyridin-2 (1H)-one]: the IC50 lay in the range of 100 to 500 nM. Consider `CC1CC(Nc2ccc3c(c2)Cc2cccc(-c4cc(N5CCOCC5)cc(=O)[nH]4)c2O3)CCN1C(=O)OC(C)(C)C` (centres unmarked) [Example 2-14-84, tert-Butyl 2-methyl-4-((5-(4-morpholino-6-oxo-1,6-dihydropyridin-2-yl)-9H-xanthen-2-yl)amino) piperidine-1-carboxylate], for which the IC50 lay in the range of 500 to 2000 nM.

For `O=c1cc(N2CCOCC2)cc(-c2cccc3c2Sc2ccc(NC4CCNCC4)cc2S3)[nH]1` [Example 1-24-15, 4-Morpholino-6-(7-(piperidin-4-ylamino)thianthren-1-yl)pyridin-2(1H)-one], the IC50 is below 100 nM. On to `O=c1cc(N2CCOCC2)cc(-c2cccc3c2Oc2ccc(NCc4cccc(C5CC5)n4)cc2S3)[nH]1` [Example 4-4-21, 6-(8-(((6-Cyclopropylpyridin-2-yl)methyl)amino)phenoxathiin-4-yl)-4-morpholino pyrdin-2(1H)-one], for which the IC50 was 100 to 500 nM. As to `CC(CCN1CCCCC1)Nc1ccc2c(c1)Sc1cccc(-c3cc(N4CCOCC4)cc(=O)[nH]3)c1S2` (centres unmarked) [Example 1-42-3, 4-Morpholino-6-(7-((4-(piperidin-1-yl)butan-2-yl)amino)thianthren-1-yl) pyridin-2(1H)-one], the IC50 lay within 100 to 500 nM. In the case of `COc1ccncc1CNc1ccc2c(c1)Sc1cccc(-c3cc(N4CCOCC4)cc(=O)[nH]3)c1S2` [Example 1-12-23, 6-(7-(((4-Methoxypyridin-3-yl)methyl)amino)thianthren-1-yl)-4-morpholino pyridin-2 (1H)-one], the IC50 was 100 to 500 nM. In the case of `COc1cncc(C(CO)Nc2ccc3c(c2)Sc2cccc(-c4cc(N5CCOCC5)cc(=O)[nH]4)c2S3)n1` (centres unmarked) [Example 1-12-79, 6-(7-((2-Hydroxy-1-(6-methoxypyrazin-2-yl)ethyl)amino)thianthren-1-yl)-4-morpholino pyridin-2(1H)-one], the IC50 lay in the range of 100 to 500 nM. For the molecule `CCOc1ccnc(CN2CCC(Nc3ccc4c(c3)Cc3cccc(-c5cc(N6CCOCC6)cc(=O)[nH]5)c3O4)CC2)c1` [Example 2-28-36, 6-(7-((1-((4-Ethoxypyridin-2-yl)methyl)piperidin-4-yl)amino)-9H-xanthen-4-yl)-4-morpholino pyridin-2(1H)-one], the IC50 fell in the range of 100 to 500 nM.

For the molecule `Cc1cnc(CNc2ccc3c(c2)Cc2cccc(-c4cc(N5CCOCC5)cc(=O)[nH]4)c2O3)cn1` [Example 2-14-76, 6-(7-(((5-Methylpyrazin-2-yl)methyl)amino)-9H-xanthen-4-yl)-4-morpholino pyridin-2(1H)-one], the IC50 is 100 to 500 nM. As to `O=c1cc(N2CCOCC2)cc(-c2cccc3c2Sc2ccc(NC(CN4CCCCC4)CN4CCOCC4)cc2S3)[nH]1` (centres unmarked) [Example 1-39, 4-morpholino-6-(7-((1-morpholino-3-(piperidin-1-yl)propan-2-yl)amino)thianthren-1-yl)pyridin-2(1H)-one], the IC50 fell in the range of 100 to 500 nM.

In the case of `COC[C@H](CN1CCOCC1)Nc1ccc2c(c1)Cc1cccc(-c3cc(N4CCOCC4)cc(=O)[nH]3)c1O2` [Example 12-5, (S)-6-(7-((1-methoxy-3-morpholinopropan-2-yl)amino)-9H-xanthen-4-yl)-4-morpholinopyridin-2(1H)-one], the IC50 is 100 to 500 nM. Take `Cc1ccc(C(Nc2ccc3c(c2)Sc2cccc(-c4cc(N5CCOCC5)cc(=O)[nH]4)c2S3)C2CN(CCO)CCO2)nc1` (racemic) [Example 1-57-1, 6-(7-(((4-(2-hydroxyethyl)morpholin-2-yl)(5-methylpyridin-2-yl)methyl)amino)thianthren-1-yl)-4-morpholinopyridin-2(1H)-one]: the IC50 was below 100 nM.
